Key:
[1] = tested on: uveitis model rats; assay: Anti-uveitis pharmacodynamic experiment (LPS model): ocular pathological score; type: in vivo, male SD rats
[2] = tested on: dry eye syndrome model New Zealand rabbits; assay: Dry eye syndrome experiment (benzalkonium chloride model): tear secretion test with phenol red cotton threads; type: in vivo, male New Zealand White rabbits
Procedure: (§6) Positive control drug: Fluorometholone Eye Drops (specification: 5 mL/5 mg; Santen Pharmaceutical (CHINA) Co., Ltd.; Lot No.: 1FM6625) was used as the positive control drug and stored at room temperature protected from light until use.
(§7) Thirty male New Zealand White rabbits (conventional grade) were prepared. Six rabbits were randomly selected as the blank control group, and the remaining animals were administered 0.1% benzalkonium chloride to the left eye twice daily (morning and evening) , 10 µL/animal each time. On day 6 of modeling, tear secretion was measured using phenol red cotton threads to determine whether the model was successfully established. […] During the administration, all animals except the blank control group were administered 10 µL of 0.1% benzalkonium chloride to the left eye once daily to maintain dry eye symptoms..
• Test time: D3, D7, D15; • Test animals: All animals were tested before grouping; all enrolled surviving animals were tested after administration; • Test method: Tear secretion was measured using phenol red cotton threads. The tear secretion test paper was folded and placed at the middle and outer 1/3 of the rabbit palpebral conjunctival sac for 1 min. The test paper was then removed, observed, and recorded for its wetting length. The test was repeated 3 times, and the values were averaged.
(§8) The normality and homogeneity of variance were tested by Levene's test. If there was no statistical significance (P > 0.05), one-way analysis of variance (ANOVA) was used for statistical analysis. If ANOVA was statistically significant (P ≤ 0.05), LSD test (parametric method) was used for comparative analysis. If the variance was heterogeneous (P ≤ 0.05), Kruskal-Wallis test was used. If the Kruskal-Wallis test was statistically significant (P ≤ 0.05), Dunnett's test (nonparametric method) was used for comparative analysis.

[3] = tested on: dry eye syndrome model New Zealand rabbits; assay: Dry eye syndrome experiment (benzalkonium chloride model): tear film break-up time; type: in vivo, male New Zealand White rabbits
Procedure: as §6, §7
• Test time: D3, D7, D15; • Test animals: All animals were tested before grouping; all enrolled surviving animals were tested after administration; • Test method: 1% Fluorescein sodium was dropped onto the inner side of the rabbit's lower eyelid, 10 µL/animal. The rabbit's eyes were closed and gently massaged to evenly distribute the fluorescein sodium on the eye surface. The rabbit's eyes were then sequentially placed under a slit lamp. The tear film break-up time was observed and recorded as the time from eye opening to the appearance of the first dark spot. If no dark spot appeared, the time was calculated as 60 seconds.
as §8

[4] = tested on: dry eye syndrome model New Zealand rabbits; assay: Dry eye syndrome experiment (benzalkonium chloride model): corneal fluorescein sodium staining; type: in vivo, male New Zealand White rabbits
[5] = tested on: intraocular pressure of guinea pigs; assay: Adverse reactions of continuous ocular administration: intraocular pressure; type: in vivo; settings: for Intraocular pressure of guinea pigs (mmHg) D0: D0, before administration; for Intraocular pressure of guinea pigs (mmHg) D0 / Intraocular pressure of guinea pigs (mmHg) D7 / Intraocular pressure of guinea pigs (mmHg) D14 / Intraocular pressure of guinea pigs (mmHg) D21 / Intraocular pressure of guinea pigs (mmHg) D28: 50 µL/eye (compounds and fluorometholone 1 mg/mL, loteprednol 5 mg/mL)
Procedure: Pharmacological Example 9: Experiment on Adverse Reactions of Continuous Ocular Administration in Guinea Pigs
Test samples: Compounds 17 and 23 were prepared as 5 mg/5 mL ophthalmic suspensions with reference to the formulation of Fluorometholone Eye Drops, and stored at room temperature protected from light until use.
Positive control drug: Fluorometholone Eye Drops (specification: 5 mL/5 mg; Santen Pharmaceutical (CHINA) Co., Ltd.; Lot No.: 1FM6545), Loteprednol Etabonate Eye Drops (specification 0.5% (5 mg/mL); Shandong Bausch & Lomb Freda Pharmaceutical Co., Ltd; Lot No. 386521), stored at room temperature protected from light until use.
Animals: 50 guinea pigs, conventional grade, with an equal number of males and females, weighing 300-350 g..
Animal grouping: After 5 days of adaptive feeding, the guinea pigs were randomly divided into 5 groups based on body weight. Group 1 was the blank control group, and 50 µL of normal saline was dropped into the eyes (bilateral) of the guinea pigs. Groups 2 to 5 were the fluorometholone group, loteprednol group, compound 17 group, and compound 23 group, respectively, and the corresponding drugs were dropped into the eyes (bilateral) of the guinea pigs. Table 19. Animal grouping and drug administration dosages for the experiment on adverse reactions of continuous ocular administration in guinea pigs
Intraocular pressure measurement time: The intraocular pressure of animals in each group was measured before administration and on days 7, 14, 21, and 28 post-administration.

[6] = tested on: asthma model mice; assay: Anti-asthma pharmacodynamic experiment: airway hyperresponsiveness (Penh) after methacholine challenge; type: in vivo, female BALB/c mice; settings: for Penh values in mice, Methacholine concentration (mg/ml) 0 / Penh values in mice, Methacholine concentration (mg/ml) 6.25 / Penh values in mice, Methacholine concentration (mg/ml) 12.5: 0.3 mg/mL, 50 µL intratracheally once daily for 3 days; for Penh values in mice, Methacholine concentration (mg/ml) 0: methacholine 0 mg/ml; for Penh values in mice, Methacholine concentration (mg/ml) 6.25: methacholine 6.25 mg/ml; for Penh values in mice, Methacholine concentration (mg/ml) 12.5: methacholine 12.5 mg/ml
Procedure: (§9) Pharmacological Example 4: Pharmacodynamic Experiment on Anti-Asthma
(§10) The suspensions were stored at room temperature protected from light until use.
(§11) Positive control drug: Budesonide Suspension for Inhalation (specification: 2 mL: 1 mg; AstraZeneca Inc.; Lot No. : 327392) was diluted with injection-grade sodium chloride solution to 0.3 mg/ml as the positive control drug, and stored at room temperature protected from light until use.
(§12) Sixty female BALB/c mice underwent a one-week adaptive feeding period. Ten mice were randomly selected as the blank control group, while 50 mice were selected to establish asthma models.
(§13) From days 21 to 23 after sensitization, the mice in the model group and drug administration group were exposed to a 30-minute aerosol challenge with 5% OVA, while the mice in the blank control group were exposed to normal saline aerosol for the same duration.
Airway responsiveness was measured in all groups of mice after the last challenge. The mice were placed into a plethysmography chamber, and baseline Penh values were recorded. Subsequently, the mice were challenged with aerosolized methacholine at concentrations from low to high of 0, 6.25, and 12.5 mg/mL, with an aerosol volume of 100 µ L each time for 60 s. […] Penh values were then recorded for 3 min and averaged to compare the airway responsiveness of each group of mice.
(§14) Statistical analysis was performed using SPSS software. Measurement data were expressed as mean ± standard deviation. One-way ANOVA was used for intergroup comparisons. For data with homogeneous variance, LSD test was used; for data with heterogeneous variance, Dunnett-t test was used. A value of P < 0.05 was considered statistically significant.

[7] = tested on: inflammatory cytokines IL-6 and IL-12; assay: Anti-asthma pharmacodynamic experiment: inflammatory cytokines in bronchoalveolar lavage fluid (ELISA); type: in vivo, female BALB/c mice; settings: for IL-6 / IL-12: bronchoalveolar lavage fluid, 0.3 mg/mL, 50 µL intratracheally once daily for 3 days
Procedure: as §9, §10, §11, §12, §13
At the end of airway hyperresponsiveness testing in mice, the mice were euthanized by cervical dislocation and fixed on a dissection tray. The abdomens and thoracic cavities of the mice were opened, and the skin and excess tissues of the neck were excised to expose the trachea of the mice. A small incision was made transversely on the trachea with a small scissors. A pre-treated 1 mL syringe needle was inserted and fastened with surgical thread. A 1 mL syringe was used to slowly inject 0.5 mL of pre-chilled phosphate-buffered saline (PBS) into the lungs of the mice, followed by slow aspiration. Each mouse was lavaged once, and a total of approximately 0.4 ml of lavage fluid was collected. The bronchoalveolar lavage fluid was centrifuged at 3000 rpm for 5 min. After centrifugation, the supernatant was aliquoted, and the levels of inflammatory cytokines IL-6 and IL-12 in the bronchoalveolar lavage fluid were determined using ELISA kits.
as §14

[8] = target: T1, mineralocorticoid receptor (MR) (Homo sapiens, UniProt P08235); assay: Assay for agonist activity on mineralocorticoid receptor (luciferase reporter, HEK293 cells transfected with pBIND-MR plasmid); type: cell-based; settings: EC50 of agonist activity, HEK293 reporter cells, top concentration 50 µM; read-out: Nuclear receptor enzyme activity (nM) MR
T1 sequence (P08235 726-984): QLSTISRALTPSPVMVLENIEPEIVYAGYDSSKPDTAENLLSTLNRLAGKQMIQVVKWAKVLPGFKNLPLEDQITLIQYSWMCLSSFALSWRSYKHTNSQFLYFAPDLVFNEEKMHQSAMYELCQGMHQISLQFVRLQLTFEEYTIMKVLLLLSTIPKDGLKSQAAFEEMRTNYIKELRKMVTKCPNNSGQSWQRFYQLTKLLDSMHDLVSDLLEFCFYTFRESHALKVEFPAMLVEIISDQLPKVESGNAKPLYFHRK
Procedure: (§1) Pharmacological Example 2: Assay for Agonist Activity on Mineralocorticoid Receptor (MR) and Progesterone Receptor (PR)
(§2) Test compound stock solutions: The test compounds (compounds 4, 5, 7, 8, 9, 11, 13, 16, 17, 18, 22, 23, 24, 34, 35, 36, 38, 41, 45, 47, 53, 55, and 59) were accurately weighed, dissolved in DMSO to prepare stock solutions at a concentration of 20 mM, and stored at -20 °C.
(§3) The test compounds were subjected to a 4-fold serial dilution starting from an initial concentration of 50 µ M, generating a 12-point concentration gradient with duplicate wells for each concentration. The blank control consisted of 0.1% DMSO.
(§4) The HEK293 stable cell lines […] transfected with mineralocorticoid receptor (MR) and progesterone receptor (PR) (ICE Bioscience, Lot No. TYP-20220819, TPJ-20220812) were cultured in Dulbecco's Modified Eagle Medium (DMEM) supplemented with 10% fetal bovine serum (FBS) and 200 µ g/ml Hygromycin B in a cell incubator containing 5% CO2 at 37 °C. The spent medium was aspirated, and the cells were washed once with phosphate-buffered saline (PBS). Then, 1 mL of TrypLE™ Express solution was added, and the cells were incubated at 37 °C for approximately 2 min. When the cells detached from the bottom of the cell culture dish, approximately 5 mL of pre-warmed complete medium at 37 °C was added. The cell suspension was gently pipetted with a pipette to dissociate clumped cells. The cell suspension was transferred to a sterile centrifuge tube and centrifuged at 1000 rpm for 5 min to pellet the cells for experiments or subculture..
(§5) HEK293 cells were digested and seeded into 6-cm culture dishes. The pBIND-MR and pBIND-PR plasmids were separately transfected into the HEK293 cells using a transfection reagent, resulting in HEK293 cells successfully transfected with the pBIND-MR and pBIND-PR plasmids, respectively. The cells were resuspended in phenol red-free DMEM medium containing 5% charcoal-stripped serum, counted, and then seeded into 96-well plates. The test compounds were added, and the plates were then incubated in an incubator. The luminescence signal values were measured using a multimode microplate reader following the instructions of the luciferase assay kit. The EC50 values of each test compound were calculated using the nonlinear fitting formula with GraphPad Prism 8.0 software.

[9] = target: T2, progesterone receptor (PR) (Homo sapiens, UniProt P06401); assay: Assay for agonist activity on progesterone receptor (luciferase reporter, HEK293 cells transfected with pBIND-PR plasmid); type: cell-based; settings: EC50 of agonist activity, HEK293 reporter cells, top concentration 50 µM; read-out: Nuclear receptor enzyme activity (nM) PR
T2 sequence (P06401 678-933): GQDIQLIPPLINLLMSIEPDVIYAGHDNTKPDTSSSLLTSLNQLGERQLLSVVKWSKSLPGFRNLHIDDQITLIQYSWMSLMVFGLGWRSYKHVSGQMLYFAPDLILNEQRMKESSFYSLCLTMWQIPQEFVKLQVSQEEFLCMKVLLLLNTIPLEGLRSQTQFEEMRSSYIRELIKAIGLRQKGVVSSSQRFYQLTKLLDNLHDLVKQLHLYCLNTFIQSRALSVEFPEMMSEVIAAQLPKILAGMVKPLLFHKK
Procedure: as §1, §2, §3, §4, §5

[10] = D3, 1 mg/mL, 50 µL/eye, 3 times a day for 14 days
[11] = D7, 1 mg/mL, 50 µL/eye, 3 times a day for 14 days
[12] = D15, 1 mg/mL, 50 µL/eye, 3 times a day for 14 days

Compound	intraocular pressure after continuous ocular administration [5]	Intraocular pressure of guinea pigs (mmHg) D0 [5]	Intraocular pressure of guinea pigs (mmHg) D7 [5]	Intraocular pressure of guinea pigs (mmHg) D14 [5]	Intraocular pressure of guinea pigs (mmHg) D21 [5]	Intraocular pressure of guinea pigs (mmHg) D28 [5]	Penh values in mice, Methacholine concentration (mg/ml) 0 [6]	Penh values in mice, Methacholine concentration (mg/ml) 6.25 [6]	Penh values in mice, Methacholine concentration (mg/ml) 12.5 [6]	IL-6 [7]	IL-12 [7]	further results
CC(=O)[C@@]1(O)CC[C@H]2[C@@H]3C[C@H](C)C4=CC(=O)C=C[C@]4(C)[C@@]3(F)[C@@H](O)C[C@@]21C [Fluorometholone, reference compound]	intraocular pressure elevation was detected on day 7	14.3 ± 1.5 mmHg	20.5 ± 3.3 mmHg	21.2 ± 2.1 mmHg	23.0 ± 3.1 mmHg	22.5 ± 2.1 mmHg						Ocular pathological score ([1]; 1 mg/mL, 40 µL/eye, 3 times a day for 2 days): 7.1 ± 0.7; ocular abnormalities / ocular pathological score ([1]; compared with the model group): significantly improved the ocular abnormalities and reduced the ocular pathological score; Wetting length of phenol red cotton threads (mm) D0 ([2]; D0, 1 mg/mL, 50 µL/eye, 3 times a day for 14 days): 26.35 ± 5.52 mm; Wetting length of phenol red cotton threads (mm) D3 [2, 10]: 29.45 ± 5.48' mm; Wetting length of phenol red cotton threads (mm) D7 [2, 11]: 30.41 ± 5.29" mm; Wetting length of phenol red cotton threads (mm) D15 [2, 12]: 32.26 ± 3.69 mm; tear secretion ([2]; compared with the model group): significantly increased the tear secretion on day 15; Tear film break-up time (s) D3 [3, 10]: 43.17 ± 14.47 s; Tear film break-up time (s) D7 [3, 11]: 47.33 ± 16.37 s; Tear film break-up time (s) D15 [3, 12]: 51.33 ± 13.44" s; tear film break-up time ([3]; compared with the model group): significantly increased the tear film break-up time on day 15; Corneal fluorescein sodium staining score D3 [4, 10]: 1.67 ± 0.82; Corneal fluorescein sodium staining score D7 [4, 11]: 1.17 ± 0.41; Corneal fluorescein sodium staining score D15 [4, 12]: 1.0 ± 0; inflammatory response on the ocular surface / ocular symptoms ([4]; compared with the model group): significantly inhibited the inflammatory response on the ocular surface on day 15
CCCC1O[C@@H]2C[C@H]3[C@@H]4CCC5=CC(=O)C=C[C@]5(C)[C@H]4[C@@H](O)C[C@]3(C)[C@]2(C(=O)CO)O1 (some centres unmarked) [Budesonide, reference compound]							1.12 ± 0.30	1.65 ± 0.29	2.14 ± 0.38	21.5 ± 6.8 pg/mL	17.5 ± 4.9 pg/mL	
CCOC(=O)O[C@]1(C(=O)OCCl)CC[C@H]2[C@@H]3CCC4=CC(=O)C=C[C@]4(C)[C@H]3[C@@H](O)C[C@@]21C [Loteprednol, Loteprednol Etabonate, reference compound]	intraocular pressure elevation was detected on day 7	14.0 ± 1.8 mmHg	19.0 ± 3.5 mmHg	18.5 ± 1.5 mmHg	18.5 ± 0.7 mmHg	19.5 ± 0.6 mmHg						
C[C@]12C=CC(=O)C=C1[C@@H](F)C[C@H]1[C@@H]3C[C@H]4OC(c5ccc(CSC6COC(=O)C6)cc5)O[C@@]4(C(=O)CO)[C@@]3(C)C[C@H](O)[C@@]12F (stereo partly drawn) [Compound 11, (2S,6aS,6bR,7S,8aS,8bS,11aR,12aS,12bS)-2,6b-Difluoro-7-hydroxy-8b-(2-hydroxyacetyl)-6a,8a-dimethyl-10-(4-(((5-oxotetrahydrofuran-3-yl)thio)methyl)phenyl)-1,2,6a,6b,7,8,8a,8b,11a,12,12a, 12b-dodecahydro-4H-naphtho[2',1':4,5]indeno[1,2-d][1,3]dioxol-4-one]							1.08 ± 0.18	1.45 ± 0.31	1.92 ± 0.34	16.3 ± 7.9 pg/mL	11.1 ± 3.7 pg/mL	EC50 [8]: > 50000 nM; EC50 [9]: > 50000 nM; Effects on airway hyperresponsiveness (Penh values) in mice ([6]; compared with the model group): significantly decreased the Penh values in mice; Effects on inflammatory cytokines in bronchoalveolar lavage fluid of mice ([7]; compared with the model group): extremely significantly decreased the levels of IL-6 and IL-12 in mice
